The test system of assay [1] is corneal endothelial wound. In words: Rabbit corneal endothelial wound model, topical instillation (Example 1). In kind it is in vivo. As to conditions: 10 mM instillation, 6 times a day, 46 hours after wound creation. The procedure: In this Example, 0.95 mM (0.03 w/v%) compound (I) instillation and 0.32 mM (0.01 w/v%) compound (I) instillation obtained by diluting the above instillation with the above-mentioned vehicle were used.
As a positive control substances, Y-27632 dihydrochloride (Wako Pure Chemical Industries, Co., Ltd., Cat. #253-00513) and fasudil hydrochloride hydrate injection (Eril (registered trade mark) drip intravenous injection, Asahi Kasei Pharma) were purchased, and Y-27632 and Fasudil were each adjusted to 10 mM with phosphate-buffered saline (PBS, Invitrogen, Cat. #14190). In addition, PBS was used as a negative control substance.
Male Japanese white rabbits (body weight 2.5-3.0 kg, 21 rabbits) were purchased from Biotek Co., Ltd. and used. They are kept in individual cages at 23±3° C. temperature, at 55±10% humidity and 12 hours artificial light cycle (lighting on; 8:00 a.m., lighting off; 8:00 p.m.). One hundred grams of solid food (Labo R stock; Nosan Corp.) are provided daily to each animal. Water is supplied by automatic watering apparatus.
3. Excision of Nictitating Membrane of Animal Before starting the test, the nictitating membrane of both eyes of the animal was excised. To be specific, each animal was set in a positioner, and the ocular surface was topically anesthetized by instillation of a topical anesthesia (Benoxil instillation 0.4%, Santen Pharmaceutical Co., Ltd.). Then, the root position of the nictitating membrane was pressed with a clamp for 30 sec, and compressing mark was cut with scissors. After excision of the nictitating membrane, the antibiotic ointment (tarivid eye ointment, Santen Pharmaceutical Co., Ltd.) was instilled to prevent infection. After 4 days from the excision of the nictitating membrane, animals confirmed to have no abnormality in the external eye including the excised site were used.
The corneal thickness of the right eye of each animal was measured with an ultrasonic pachymeter (manufactured by DGH Technologies Inc., DGH-500), and the animals were divided into 4 groups such that the corneal thickness of each group was equal. The animals used for each group were as follows. • 10 mM Y-27632 group=5 eyes • 0.32 mM compound (I) group=5 eyes • 0.95 mM compound (I) group=6 eyes • 10 mM Fasudil group=5 eyes • PBS group=21 eyes (left eye)
The animals were sytemically anesthetized by intramuscular administration of Ketalar muscular injection ([…], DAIICHI SANKYO COMPANY, LIMITED., 0.6 ml) and Celactal 2% Injection (Bayer, Ltd., 0.25 ml). Then, Benoxil instillation 0.4% (Santen Pharmaceutical Co., Ltd., one drop) was instilled and the eye was opened using a lid speculum.
A 7-mm diameter stainless dowel that had been cooled in liquid nitrogen was placed on the central cornea of both eyes of 21 animals for 15 sec. to produce an ice ball in the anterior chamber and dissociate corneal endothelial cells, whereby a corneal endothelial wound was produced.
For topical instillation, after wound creation, compound (I) instillation, Y-27632 instillation or Fasudil instillation was instilled to the right eye, and PBS was instilled to the left eye 6 times a day (4 times on the day of wound production) at 50 μL per instillation. Administration interval in one day was 2 hours. […]

In assay [2] the test system is cultured monkey corneal endothelial cells. The following applies: in vitro; cited from earlier work.

The structures appear in SMILES notation.

Results on 1 compound are retold here after patent publication US20120288482A1, “THERAPEUTIC AGENT (Y-39983) FOR CORNEAL ENDOTHELIAL DYSFUNCTION” (priority 2009, published 2012).

On to `O=S(=O)(c1cccc2cnccc12)N1CCCNCC1` [Fasudil], for which the “area of the unrepaired wound site (corneal endothelium wound area)” value in assay [1] worked out at 1.7 mm^2. Also, in assay [2], the apoptosis entry is recorded as “suppression of apoptosis”, the cell adhesion entry is “promotion of cell adhesion” and the cell cycle result is “promotion of cell cycle”.
